Laboratory results as given in the supplement of paper PMC10949913.

How the values were obtained:
Assay in all cases: area under concentration-response curve (viability) (AUC (a.u.)); higher = less active
Details in all cases: 48 h
[1] = system: CU-ACC2
In short: (§1)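 Library compounds were dispensed at 11 concentrations (23 nL each) onto three adrenocortical carcinoma cell lines in 1,536-well plates. Luminescence was recorded after 48 h using CellTiter-Glo, and signals were normalised per plate to vehicle and empty-well controls. Fitted concentration-response curves of inhibitory or non-responding classes only supplied the AC50 and area under the curve.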

[2] = system: NCI-H295R
In short: as §1

[3] = system: CU-ACC1
In short: as §1

Row | Compound | area under concentration-response curve [1] | area under concentration-response curve [2] | area under concentration-response curve [3]
1 | CCOC(=O)[C@@H](N)CCC(=O)N[C@@H](CSCc1ccccc1)C(=O)N[C@@H](C(=O)OCC)c1ccccc1 | 635 | 602 | 594
2 | Cc1ccc(C(=O)c2cc(O)c(O)c([N+](=O)[O-])c2)cc1 | 645 | 598 | 551
3 | CC(=O)OC[C@@H]1O[C@H]([C@H](OC(C)=O)[C@@H]1OC(C)=O)N2\C=C/C(=O)NC2=O | 521 | 459 | 497
4 | CC1=CC=C2N=C(NC(=O)CS\C3=N\C4=C(\SCC4)C(=O)N3C5=CC=CC=C5)SC2=C1 | 633 | 558 | 538
5 | CCO[C@@H]1OC(=O)C[C@@H]1NC(=O)[C@@H]1CCCN2C(=O)CC[C@H](NC(=O)c3nccc4ccccc34)C(=O)N12 | 594 | 553 | 568
6 | CC1(C)O[C@@H]2C[C@H]3[C@@H]4CCC/5=C/C(=O)/C=C\[C@]5(C)[C@@]4(F)[C@@H](O)C[C@]3(C)[C@@]2(O1)C(=O)CO | 517 | 548 | 551
7 | CC(C)NCC(O)c1ccc(N[S+](C)(=O)[O-])cc1 (configuration not stated) | 624 | 570 | 530
8 | O=C(O)C(=O)Nc1cccc(-c2nnn[nH]2)c1 | 645 | 553 | 547
9 | O=C(c1ccc(C(=O)N2CCC(N3CCCC3)CC2)c(Nc2ccccc2)c1)N1CCC(N2CCCC2)CC1 | 601 | 556 | 493
10 | COC1=CC(=CC(=C1CN(C)C)OC)\C2=C\N(C)C(=O)C3=C2C=CN=C3 | 578 | 479 | 500
11 | CN1C(=O)N[C@@H](Cc2c[nH]c3c(Cl)cccc23)C1=O | 512 | 535 | 531
12 | O=C([C@@H](Cc1cccc(C(F)(F)F)c1)N[S+](=O)([O-])c1cc(F)c2c(c1)CCNC2)N1CCCC1 | 515 | 535 | 528
13 | c1cc(-c2sc(-c3ccncc3)c(-c3ccncc3)c2-c2ccncc2)ccn1 | 544 | 565 | 549
14 | C[C@]12CC[C@@H]3c4ccc(O)cc4CC[C@H]3[C@@H]1[C@@H](O)[C@@H](O)[C@@H]2O | 565 | 520 | 494
15 | N[S+]([O-])(=O)C1=C(Cl)C=C2\N=C/N[S+]([O-])(=O)C2=C1 | 646 | 576 | 548
16 | C[C@H](CCC(=O)O)[C@H]1CC[C@H]2[C@@H]3[C@@H](O)C[C@@H]4C[C@H](O)CC[C@]4(C)[C@H]3CC[C@]12C | 496 | 538 | 519
17 | Cc1cn(-c2cc(NC(=O)c3ccc(C)c(Nc4nccc(-c5cccnc5)n4)c3)cc(C(F)(F)F)c2)cn1 | 506 | 417 | 438
18 | COc1ccc([C@@H]2CNC(=O)C2)cc1OC1CCCC1 | 457 | 516 | 432
19 | CCCCCCCCCCCCc1ccc([S+](=O)([O-])Nc2nncs2)cc1 | 604 | 527 | 543
